{
  "source": "patent US8217172B2",
  "about": "“Solid forms of 1-ethyl-3-(5-(5-fluoropyridin-3-yl)-7-(pyrimidin-2-yl)-1H-benzo[d]imidazol-2-yl)urea” (Vertex Pharmaceuticals Incorporated, priority 2007, dated 2012)",
  "type_in_all_cases": "physicochemical",
  "key": {"[1]": {"experiment": "Solubility in various media (equilibration on a shaking bed for 24 hours, HPLC)", "conditions": "for solubility at 24 h: thermodynamic from solid", "method": "(§1) Solubility: The solubility of form IA in various media was determined at ambient conditions by equilibrating aliquots of the drug powder with the solvents on a shaking bed for 24 hours. The samples were centrifuged, the saturated solutions of the drug were then separated and analyzed by HPLC. The sample volume was 100 μL and the target concentration was 10 mg/mL. The saturated solutions were diluted appropriately and analyzed by HPLC.\nSolubility: Solubility of form IIC in various media was determined at ambient conditions by equilibrating aliquots of the drug powder with the solvents on a shaking bed for 24 hours. Samples were spun and the supernatant was carefully separated and analyzed by HPLC at the 24-hour timepoint using a stability-indicating method. […] Some variability may occur between lots of a particular sample.\nas §1, with “Solubility” for “The solubility”, “IIIB” for “IA”, “medium” for “solvents”, “μL,” for “μL”, “mg/ml.” for “mg/mL.”"}, "[2]": {"experiment": "Stability analysis (chemical stability by HPLC, physical stability by XRPD)", "text": "In some embodiments, less than 25% of the form of Compound 1 decomposes, in some embodiments, less than about 20%, less than about 15%, less than about 10%, less than about 5%, less than about 3%, less than about 1%, less than about 0.5% of the form of Compound 1 decomposes under the conditions specified. In some embodiments, no detectable amount of the form of Compound 1 decomposes.\nIn some embodiments, less than 25% of the form of Compound 1 changes into one or more different physical forms when subjected to specified conditions, In some embodiments, less than about 20%, less than about 15%, less than about 10%, less than about 5%, less than about 3%, less than about 1%, less than about 0.5% of the form of Compound 1 changes into one or more different physical forms of Compound 1 when subjected to specified conditions. In some embodiments, no detectable amount of the form of Compound 1 changes into one or more different physical forms of Compound 1."}, "[3]": {"experiment": "Dynamic Vapor Sorption (DVS), step isothermal study", "conditions": "25° C.", "method": "(§2) Dynamic Vapor Sorption (DVS): A step isothermal study (25° C.) was conducted on a representative sample of form IA using a VTI SGA 100 Symmetric Vapor Sorption Analyzer. An aliquot of approximately 10 mg was weighed in an open platinum dish and exposed to different levels of humidity at 25° C. Relative humidity (RH) steps were from 5% to 95% (adsorption) and from 95% to 5% in increments of 5% RH (desorption). The equilibration criterion was 0.0100 wt % change in 5 min, with a max equilibration time of 180 min. The sample picked up ˜8 wt % moisture at 95% relative humidity (RH).\nas §2, with “a” for “a representative”, “form IIA” for “form IA”, “The material” for “The sample”, “up ˜11” for “up ˜8”\nas §2, with “a” for “a representative”, “form IIC” for “form IA”, “The material” for “The sample”, “up ˜4” for “up ˜8”\nWater Vapor Sorption analysis: Vapor Sorption analysis of a sample of form IIIB was done using a SGA-100 Vapor Sorption Analyzer (VTI, Hialeah, Fla.). A sample with weight of approximately 7-12 mg was measured isothermally at 25° C. Data was collected by Isotherm software and analyzed by Microsoft Excel with a VTI macro (VTI, Hialeah, Fla.). The sample gained about 4.6% in weight from 5 to 95% RH (25° C.)."}, "[4]": {"conditions": "various storage conditions, including 40° C./75% RH (e.g., open container)"}},
  "note": "Read-outs that look alike come from different tables or passages of the source.",
  "data": [
    {"molecule": "CCNC(=O)Nc1nc2cc(-c3cncc(F)c3)cc(-c3ncccn3)c2[nH]1", "note": "[Form IA, crystalline 1-ethyl-3-(5-(5-fluoropyridin-3-yl)-7-(pyrimidin-2-yl)-1H-benzo[d]imidazol-2-yl)urea]", "values": [
      {"measurement": "solubility at 24 h", "setting": "[1]; 0.05 M potassium biphthalate-sodium hydroxide buffer, pH 3, aqueous buffer, Potassium biphthalate sodium hydroxide, pH 3, read-out: Solubility in 0.05M Buffers at Different pH", "value": 70, "unit": "µg/mL"},
      {"measurement": "solubility at 24 h", "setting": "[1]; 0.05 M potassium biphthalate-sodium hydroxide buffer, pH 5, aqueous buffer, Potassium biphthalate sodium hydroxide, pH 5, read-out: Solubility in 0.05M Buffers at Different pH", "value": "< 1", "unit": "µg/mL"},
      {"measurement": "solubility at 24 h", "setting": "[1]; 0.05 M potassium chloride-hydrochloric acid buffer, pH 1, simulated gastric fluid, Potassium chloride hydrochloric acid, pH 1, read-out: Solubility in 0.05M Buffers at Different pH", "value": 2240, "unit": "µg/mL"},
      {"measurement": "solubility at 24 h", "setting": "[1]; 0.05 M potassium phosphate monobasic-sodium hydroxide buffer, pH 7, aqueous buffer, Potassium phosphate monobasic-sodium hydroxide, pH 7, read-out: Solubility in 0.05M Buffers at Different pH", "value": "< 1", "unit": "µg/mL"},
      {"measurement": "solubility at 24 h", "setting": "[1]; 0.05 M potassium phosphate monobasic-sodium hydroxide buffer, pH 9, aqueous buffer, Potassium phosphate monobasic-sodium hydroxide, pH 9, read-out: Solubility in 0.05M Buffers at Different pH", "value": "< 1", "unit": "µg/mL"},
      {"measurement": "solubility at 24 h", "setting": "[1]; 0.1N HCl, pH 1.29, simulated gastric fluid, 0.1N HCL, pH 1.29, ambient, 24 h, read-out: Solubility", "value": 13700, "unit": "µg/mL"},
      {"measurement": "solubility at 24 h", "setting": "[1]; 1% SLS (sodium lauryl sulfate), pH 7.87, aqueous with cosolvent or surfactant or cyclodextrin, 1% SLS (Sodium Lauryl Sulfate), pH 7.87, ambient, 24 h, read-out: Solubility", "value": 75, "unit": "µg/mL"},
      {"measurement": "solubility at 24 h", "setting": "[1]; 1% Tween 80 in water, aqueous with cosolvent or surfactant or cyclodextrin, 1% Tween80 in water, ambient, 24 h, read-out: Solubility", "value": 10, "unit": "µg/mL"},
      {"measurement": "solubility at 24 h", "setting": "[1]; 10% Cremophor EL, pH 6.48, aqueous with cosolvent or surfactant or cyclodextrin, 10% Cremophor EL, pH 6.48, ambient, 24 h, read-out: Solubility", "value": 66, "unit": "µg/mL"},
      {"measurement": "solubility at 24 h", "setting": "[1]; 10% Cremophor in water, aqueous with cosolvent or surfactant or cyclodextrin, 10% Cremophor in water, ambient, 24 h, read-out: Solubility", "value": 80, "unit": "µg/mL"},
      {"measurement": "solubility at 24 h", "setting": "[1]; 10% Tween 80, pH 6.22, aqueous with cosolvent or surfactant or cyclodextrin, 10% Tween 80, pH 6.22, ambient, 24 h, read-out: Solubility", "value": 67, "unit": "µg/mL"},
      {"measurement": "solubility at 24 h", "setting": "[1]; 10% Vit E TPGS, pH 5.57, aqueous with cosolvent or surfactant or cyclodextrin, 10% Vit E TPGS, pH 5.57, ambient, 24 h, read-out: Solubility", "value": 87, "unit": "µg/mL"},
      {"measurement": "solubility at 24 h", "setting": "[1]; D5W (dextrose 5% in water), saline or isotonic, D5W (Dextrose 5% in water), ambient, 24 h, read-out: Solubility", "value": "< 1", "unit": "µg/mL"},
      {"measurement": "solubility at 24 h", "setting": "[1]; Fasted SIF (Dressman's recipe 1), fassif, Dressman's recipe 1-Fasted SIF, ambient, 24 h, read-out: Solubility", "value": "< 1", "unit": "µg/mL"},
      {"measurement": "solubility at 24 h", "setting": "[1]; Fed SIF (simulated intestinal fluid, Dressman's recipe 1), fessif, Dressman's recipe 1-Fed SIF (Simulated Intestinal Fluid), ambient, 24 h, read-out: Solubility", "value": 10, "unit": "µg/mL"},
      {"measurement": "solubility at 24 h", "setting": "[1]; Miglyol 810, oil or lipid, Miglyol 810, ambient, 24 h, read-out: Solubility", "value": 17, "unit": "µg/mL"},
      {"measurement": "solubility at 24 h", "setting": "[1]; PBS, aqueous buffer, PBS (Phosphate Buffer Saline), ambient, 24 h, read-out: Solubility", "value": "< 1", "unit": "µg/mL"},
      {"measurement": "solubility at 24 h", "setting": "[1]; PEG 400, pH 7.54, organic solvent or mixture, PEG 400, pH 7.54, ambient, 24 h, read-out: Solubility", "value": 1620, "unit": "µg/mL"},
      {"measurement": "solubility at 24 h", "setting": "[1]; SGF (simulated gastric fluid, USP recipe), simulated gastric fluid, USP recipe-SGF (Simulated Gastric Fluid), ambient, 24 h, read-out: Solubility", "value": 4920, "unit": "µg/mL"},
      {"measurement": "solubility at 24 h", "setting": "[1]; Tris buffer, pH 7 (1.0 M), pH 7.2, aqueous buffer, Tris buffer, pH 7 (1.0M), pH 7.20, ambient, 24 h, read-out: Solubility", "value": "< 1", "unit": "µg/mL"},
      {"measurement": "solubility", "setting": "[1]; at a pH of about 1", "value": "about 2 mg/mL"},
      {"measurement": "solubility at 24 h", "setting": "[1]; deionized water, pH 7.14, water, Deionized Water, pH 7.14, ambient, 24 h, read-out: Solubility", "value": "< 1", "unit": "µg/mL"},
      {"measurement": "solubility at 24 h", "setting": "[1]; ethanol, organic solvent or mixture, Ethanol (second entry, pH NA), ambient, 24 h, read-out: Solubility", "value": 220, "unit": "µg/mL"},
      {"measurement": "solubility at 24 h", "setting": "[1]; ethanol, pH 6.71, organic solvent or mixture, Ethanol (first entry), pH 6.71, ambient, 24 h, read-out: Solubility", "value": 56, "unit": "µg/mL"},
      {"measurement": "solubility at 24 h", "setting": "[1]; octanol, organic solvent or mixture, Octanol, ambient, 24 h, read-out: Solubility", "value": 175, "unit": "µg/mL"},
      {"measurement": "solubility at 24 h", "setting": "[1]; pH 1, simulated gastric fluid, at a pH of about 1, read-out: solubility", "value": "≥ 2000", "unit": "µg/mL"},
      {"measurement": "solubility at 24 h", "setting": "[1]; propylene glycol, pH 6.04, organic solvent or mixture, Propylene Glycol, pH 6.04, ambient, 24 h, read-out: Solubility", "value": 359, "unit": "µg/mL"},
      {"measurement": "remains chemically stable for at least", "setting": "[2]; 40° C./75% relative humidity", "value": "≥ 6", "unit": "months"},
      {"measurement": "remains in substantially the same physical form for at least", "setting": "[2]; 40° C./75% relative humidity", "value": "≥ 6", "unit": "months"},
      {"measurement": "stability when subjected to mild mechanical stress", "setting": "[2]; mild mechanical stress such as grinding", "value": "chemically and physically stable"},
      {"measurement": "chemically and physically stable for at least about", "setting": "[2]; [4]", "value": "at least 2 weeks"},
      {"measurement": "chemically and physically stable for at least about (e.g. value)", "setting": "[2]; [4]", "value": "≥ 6", "unit": "months"},
      {"measurement": "hygroscopicity", "setting": "[3]; DVS", "value": "moderate hygroscopicity"},
      {"measurement": "hydrate formation", "setting": "[3]; DVS, 5% to 95% RH", "value": "did not form a hydrate"},
      {"measurement": "release of adsorbed water in the desorption stage", "setting": "[3]; DVS, 95% to 5% RH", "value": "All adsorbed water was released"},
      {"measurement": "moisture picked up at 95% relative humidity (RH)", "setting": "[3]; DVS, adsorption 5% to 95% RH", "value": "~8", "unit": "wt %"},
      {"measurement": "weight gain from 5% to 95% relative humidity", "setting": "[3]; step isothermic study (DVS)", "value": 8, "unit": "%"}
    ]}
  ]
}
